Among the data in ChEMBL document CHEMBL5649167, “The SUV4-20 inhibitor A-196 verifies a role for epigenetics in genomic integrity” (Nat Chem Biol, 2017) are inhibition, ΔTm and Activity values, retold here.

Assay [1] addresses Protein arginine N-methyltransferase 1 (Homo sapiens) (UniProt Q99873). Briefly: Inhibition of PRMT1 (unknown origin) using Biotin-tagged H4K20me1 and [3H-SAM] as substrate at 1 to 10 uM incubated for 2 hrs by scintillation proximity assay. As to conditions: dose 1-10 µM. On the technique in general: In a scintillation proximity assay essentially only radioactivity close to the scintillant gives light.

Assay [2] concerns the target Protein arginine N-methyltransferase 6 (Homo sapiens) (UniProt Q96LA8). Briefly: Inhibition of PRMT6 (unknown origin) using Biotin-tagged H4K20me1 and [3H-SAM] as substrate at 1 to 10 uM incubated for 2 hrs by scintillation proximity assay. The conditions noted are these: dose 1-10 µM.
The target in assay [3] is Histone-lysine N-methyltransferase EHMT1 (Homo sapiens) (UniProt Q9H9B1). Briefly: Inhibition of EHMT1 (unknown origin) using Biotin-tagged H4K20me1 and [3H-SAM] as substrate at 1 to 10 uM incubated for 2 hrs by scintillation proximity assay. As to conditions: dose 1-10 µM.
In assay [4] the target is Histone-lysine N-methyltransferase 2C (Homo sapiens) (UniProt Q8NEZ4). Briefly: Inhibition of MLL3 (unknown origin) using Biotin-tagged H4K20me1 and [3H-SAM] as substrate at 1 to 10 uM incubated for 2 hrs by scintillation proximity assay. The conditions noted are these: dose 1-10 µM.
Assay [5] concerns the target Histone-lysine N-methyltransferase PRDM9 (Homo sapiens) (UniProt Q9NQV7). As to the kind of experiment: Inhibition of PRDM9 (unknown origin) using Biotin-tagged H4K20me1 and [3H-SAM] as substrate at 1 to 10 uM incubated for 2 hrs by scintillation proximity assay. The conditions noted are these: dose 1-10 µM.
In assay [6] the target is Histone-lysine N-methyltransferase SETD2 (Homo sapiens) (UniProt Q9BYW2). As to the kind of experiment: Inhibition of SETD2 (unknown origin) using Biotin-tagged H4K20me1 and [3H-SAM] as substrate at 1 to 10 uM incubated for 2 hrs by scintillation proximity assay. As to conditions: dose 1-10 µM.
The target of assay [7] is Histone-lysine N-methyltransferase SMYD3 (Homo sapiens) (UniProt Q9H7B4). Briefly: Inhibition of SMYD3 (unknown origin) using Biotin-tagged H4K20me1 and [3H-SAM] as substrate at 1 to 10 uM incubated for 2 hrs by scintillation proximity assay. The conditions noted are these: dose 1-10 µM.
Sequence of Histone-lysine N-methyltransferase SMYD3 (Homo sapiens) (Q9H7B4 whole entry): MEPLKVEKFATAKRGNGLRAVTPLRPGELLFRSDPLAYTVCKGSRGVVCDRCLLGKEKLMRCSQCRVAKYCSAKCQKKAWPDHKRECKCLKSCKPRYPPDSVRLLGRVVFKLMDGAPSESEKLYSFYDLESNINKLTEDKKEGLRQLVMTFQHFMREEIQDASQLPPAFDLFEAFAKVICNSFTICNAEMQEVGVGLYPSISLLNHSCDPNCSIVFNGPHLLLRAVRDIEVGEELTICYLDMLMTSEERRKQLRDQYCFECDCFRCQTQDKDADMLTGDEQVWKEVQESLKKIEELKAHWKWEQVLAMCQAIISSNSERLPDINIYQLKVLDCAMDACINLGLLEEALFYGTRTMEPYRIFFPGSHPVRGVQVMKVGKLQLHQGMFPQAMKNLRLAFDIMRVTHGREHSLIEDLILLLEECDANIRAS
Assay [8] concerns the target DNA (cytosine-5)-methyltransferase 1 (Homo sapiens) (UniProt P26358). Briefly: Inhibition of DNMT1 (unknown origin) using dsDNA as substrate at 1 to 10 uM incubated for 1 hrs in the presence of [3H-SAM] by scintillation proximity assay. As to conditions: dose 1-10 µM.
Assay [9] concerns the target Histone-lysine N-methyltransferase, H3 lysine-36 specific (Homo sapiens) (UniProt Q96L73). As to the kind of experiment: Inhibition of NSD1 (unknown origin) at 1 to 10 uM incubated for 1 hrs by scintillation proximity assay. As to conditions: dose 1-10 µM.
The target of assay [10] is Histone-lysine N-methyltransferase NSD3 (Homo sapiens) (UniProt Q9BZ95). As to the kind of experiment: Inhibition of NSD3 (unknown origin) at 1 to 10 uM incubated for 1 hrs by scintillation proximity assay. The conditions noted are these: dose 1-10 µM.
Sequence of Histone-lysine N-methyltransferase NSD3 (Homo sapiens) (Q9BZ95 whole entry, the tested form may be a part): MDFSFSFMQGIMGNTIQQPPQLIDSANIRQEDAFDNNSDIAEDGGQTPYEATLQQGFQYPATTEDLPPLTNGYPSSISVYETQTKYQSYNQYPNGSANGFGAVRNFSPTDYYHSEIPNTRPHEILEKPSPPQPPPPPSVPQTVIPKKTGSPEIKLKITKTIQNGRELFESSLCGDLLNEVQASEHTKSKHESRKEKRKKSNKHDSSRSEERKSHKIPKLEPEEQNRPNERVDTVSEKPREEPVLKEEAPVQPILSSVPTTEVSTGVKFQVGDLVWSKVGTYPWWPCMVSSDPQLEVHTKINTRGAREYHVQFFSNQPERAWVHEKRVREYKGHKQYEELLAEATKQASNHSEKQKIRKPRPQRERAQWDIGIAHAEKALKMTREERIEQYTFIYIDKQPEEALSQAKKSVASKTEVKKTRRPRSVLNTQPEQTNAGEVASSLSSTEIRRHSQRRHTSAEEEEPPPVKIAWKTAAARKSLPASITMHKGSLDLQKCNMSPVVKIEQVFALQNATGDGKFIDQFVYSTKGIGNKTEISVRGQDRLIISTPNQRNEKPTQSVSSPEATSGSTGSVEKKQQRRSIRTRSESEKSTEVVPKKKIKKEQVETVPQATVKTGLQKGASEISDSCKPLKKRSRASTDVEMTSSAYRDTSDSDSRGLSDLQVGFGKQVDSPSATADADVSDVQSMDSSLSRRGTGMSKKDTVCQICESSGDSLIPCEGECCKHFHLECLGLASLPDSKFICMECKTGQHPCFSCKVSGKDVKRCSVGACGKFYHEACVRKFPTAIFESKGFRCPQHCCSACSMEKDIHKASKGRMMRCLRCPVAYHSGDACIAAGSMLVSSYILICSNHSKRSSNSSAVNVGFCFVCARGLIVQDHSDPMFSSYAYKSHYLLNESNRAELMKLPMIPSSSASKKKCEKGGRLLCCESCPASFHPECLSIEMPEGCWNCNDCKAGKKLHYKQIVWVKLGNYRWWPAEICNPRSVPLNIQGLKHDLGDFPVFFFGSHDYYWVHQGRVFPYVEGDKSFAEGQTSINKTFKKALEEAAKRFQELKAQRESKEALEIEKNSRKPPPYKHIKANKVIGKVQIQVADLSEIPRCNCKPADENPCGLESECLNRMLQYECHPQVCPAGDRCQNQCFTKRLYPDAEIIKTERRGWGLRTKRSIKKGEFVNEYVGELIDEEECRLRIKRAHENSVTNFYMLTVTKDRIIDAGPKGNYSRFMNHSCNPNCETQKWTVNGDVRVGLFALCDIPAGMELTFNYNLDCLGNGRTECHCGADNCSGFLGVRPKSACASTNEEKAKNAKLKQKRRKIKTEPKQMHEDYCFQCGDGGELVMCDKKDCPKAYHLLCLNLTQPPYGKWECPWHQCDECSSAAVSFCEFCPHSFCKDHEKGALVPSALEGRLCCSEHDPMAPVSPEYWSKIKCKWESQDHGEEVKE
Assay [11] concerns the target Histone-lysine N-methyltransferase KMT5B (Homo sapiens) (UniProt Q4FZB7). As to the kind of experiment: Binding affinity to recombinant human 6His-(Tev)-G-SUV420H1 (69 to 335 residues) assessed as increase thermal stability by measuring change in melting temperature at 50 uM by thermal shift assay.
For assay [12], the system named is U2OS. As to the kind of experiment: Induction of cell cycle arrest in human U2OS cells assessed as increase in H4K20me1 in S phase at 0.6 to 6 uM by plot analysis. The format is functional, cell-based. The conditions noted are these: dose 0.6-6 µM.
In assay [13] the test system is U2OS. As to the kind of experiment: Cytotoxicity against human U2OS cells assessed as cell viability at 1.5 to 100 uM incubated after 72 hrs. The format is functional, cell-based. As to conditions: dose 1.5-100 µM.
In another assay the test system is HeLa. As to the kind of experiment: Antiproliferative activity against human HeLa cells assessed as inhibition in H4K20me2 expression level 21 doublings by Western blot analysis. The format is functional, cell-based. On the technique in general: A western blot detects proteins with antibodies after separation by electrophoresis.
Assay [14] has as its system U2OS. As to the kind of experiment: Induction of DNA repair in human U2OS cells expressing I-SceI reporter assessed as increase in H4K20me1 level by Western blot analysis. It is filed as functional, cell-based.
Assay [15] deals with U2OS. As to the kind of experiment: Induction of DNA repair in human U2OS cells expressing I-SceI reporter assessed as decrease in H4K20me3 level by Western blot analysis. It is filed as functional, cell-based.
Assay [16] has as its system U2OS. Briefly: Inhibition of colony formation in human U2OS cells at 1 uM incubated for 48 hrs in the presence of MMC by cell clonogenic assay. It is filed as functional, cell-based.
For assay [17], the target named is Cyclin-dependent kinase 1 (Homo sapiens) (UniProt P06493). Briefly: Inhibition of human CDC2 at 10 uM relative to control.
Sequence of Cyclin-dependent kinase 1 (Homo sapiens) (P06493 whole entry, looked up): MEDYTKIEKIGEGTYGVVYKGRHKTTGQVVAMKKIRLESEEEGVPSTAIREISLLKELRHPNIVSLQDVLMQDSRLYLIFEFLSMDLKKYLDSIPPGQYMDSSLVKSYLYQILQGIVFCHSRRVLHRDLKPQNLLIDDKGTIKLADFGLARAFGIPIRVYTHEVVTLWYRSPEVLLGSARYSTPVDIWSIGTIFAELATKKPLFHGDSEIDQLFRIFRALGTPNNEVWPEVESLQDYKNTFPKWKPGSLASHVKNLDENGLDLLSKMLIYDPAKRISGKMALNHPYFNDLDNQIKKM
Assay [18] has as its target Serine/threonine-protein kinase Chk1 (Homo sapiens) (UniProt O14757). Briefly: Inhibition of human CHK1 at 10 uM relative to control.
Assay [19] has as its target cAMP-dependent protein kinase (PKA) (Homo sapiens) (UniProt P22694+P17612+P22612). Briefly: Inhibition of human PKA at 10 uM relative to control. It is filed as protein assay.
Assay [20] concerns the target Rho-associated protein kinase 1 (Homo sapiens) (UniProt Q13464). As to the kind of experiment: Inhibition of human ROCK1 at 10 uM relative to control.
The target in assay [21] is Serine/threonine-protein kinase PAK 2 (Homo sapiens) (UniProt Q13177). Briefly: Inhibition of human PAK2 at 10 uM relative to control.
Sequence of Serine/threonine-protein kinase PAK 2 (Homo sapiens) (Q13177 whole entry): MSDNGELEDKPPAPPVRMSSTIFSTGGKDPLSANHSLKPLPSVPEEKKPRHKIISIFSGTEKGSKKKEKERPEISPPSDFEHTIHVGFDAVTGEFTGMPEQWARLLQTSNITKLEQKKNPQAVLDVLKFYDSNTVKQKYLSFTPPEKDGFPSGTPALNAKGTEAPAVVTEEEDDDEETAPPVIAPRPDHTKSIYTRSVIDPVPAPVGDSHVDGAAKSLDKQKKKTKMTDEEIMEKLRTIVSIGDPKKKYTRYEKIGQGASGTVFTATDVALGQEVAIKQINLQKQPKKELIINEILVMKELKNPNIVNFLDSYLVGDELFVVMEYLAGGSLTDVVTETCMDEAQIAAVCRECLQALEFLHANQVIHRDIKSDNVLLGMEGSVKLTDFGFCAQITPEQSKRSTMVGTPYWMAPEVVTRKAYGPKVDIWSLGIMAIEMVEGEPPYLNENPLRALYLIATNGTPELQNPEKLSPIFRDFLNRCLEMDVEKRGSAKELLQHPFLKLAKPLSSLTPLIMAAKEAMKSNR
The target of assay [22] is Hepatocyte growth factor receptor (Homo sapiens) (UniProt P08581). As to the kind of experiment: Inhibition of human c-Met at 10 uM relative to control.
The target of assay [23] is Aurora kinase A (Homo sapiens) (UniProt O14965). As to the kind of experiment: Inhibition of human AurA at 10 uM relative to control.
Sequence of Aurora kinase A (Homo sapiens) (O14965 whole entry): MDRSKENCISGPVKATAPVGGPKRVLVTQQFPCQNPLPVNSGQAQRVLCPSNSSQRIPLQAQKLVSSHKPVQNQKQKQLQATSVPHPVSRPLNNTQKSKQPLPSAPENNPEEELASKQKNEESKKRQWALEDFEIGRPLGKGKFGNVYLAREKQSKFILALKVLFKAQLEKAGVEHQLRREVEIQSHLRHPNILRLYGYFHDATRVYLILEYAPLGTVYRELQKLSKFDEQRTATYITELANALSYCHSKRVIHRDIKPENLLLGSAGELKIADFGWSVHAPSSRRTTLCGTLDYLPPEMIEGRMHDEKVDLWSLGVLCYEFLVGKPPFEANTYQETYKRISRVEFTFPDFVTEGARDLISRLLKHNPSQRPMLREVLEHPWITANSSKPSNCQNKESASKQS
For assay [24], the target named is 5-hydroxytryptamine receptor 1B (Homo sapiens) (UniProt P28222). Briefly: Inhibition of human 5-hydroxytryptamine receptor 1B at 10 uM relative to control.
For assay [25], the target named is Sodium-dependent dopamine transporter (Homo sapiens) (UniProt Q01959). Briefly: Inhibition of human DAT in stable HEK cells at 10 uM relative to control. It is filed as cell-based.
Assay [26] concerns U2OS. As to the kind of experiment: Inhibition of H4K20me1 in human U2OS cells assessed as change in methylation level at 10 uM incubated for 48 hrs by Western blotting analysis. It is filed as functional, cell-based.
In assay [27] the test system is MEF. Briefly: Antiproliferative activity against mouse MEF cells assessed as change in H4K20me3 at 10 uM incubated for 3 days by immunofluorescence analysis. The format is functional, cell-based. The conditions noted are these: time 3.0 day.
The test system of assay [28] is MEF. As to the kind of experiment: Antiproliferative activity against mouse MEF cells assessed as change in H4K20me1 at 10 uM incubated for 3 days by immunofluorescence analysis. The conditions noted are these: time 3.0 day. It is filed as functional, cell-based.

Calls of active or inactive are those of the source. The rule behind the calls is not given here.

Sequence of Protein arginine N-methyltransferase 6 (Homo sapiens) (Q96LA8 whole entry, looked up): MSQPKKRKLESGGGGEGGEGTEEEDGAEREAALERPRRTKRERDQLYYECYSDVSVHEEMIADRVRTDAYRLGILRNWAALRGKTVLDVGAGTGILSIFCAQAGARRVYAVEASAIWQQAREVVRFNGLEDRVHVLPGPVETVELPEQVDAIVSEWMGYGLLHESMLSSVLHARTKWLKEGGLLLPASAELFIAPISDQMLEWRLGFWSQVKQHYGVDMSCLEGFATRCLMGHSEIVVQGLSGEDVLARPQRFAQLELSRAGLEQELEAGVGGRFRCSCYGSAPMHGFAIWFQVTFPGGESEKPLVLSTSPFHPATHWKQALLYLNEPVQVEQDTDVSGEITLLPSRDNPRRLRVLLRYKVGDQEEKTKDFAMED
Sequence of Rho-associated protein kinase 1 (Homo sapiens) (Q13464 2-1354 limits assumed): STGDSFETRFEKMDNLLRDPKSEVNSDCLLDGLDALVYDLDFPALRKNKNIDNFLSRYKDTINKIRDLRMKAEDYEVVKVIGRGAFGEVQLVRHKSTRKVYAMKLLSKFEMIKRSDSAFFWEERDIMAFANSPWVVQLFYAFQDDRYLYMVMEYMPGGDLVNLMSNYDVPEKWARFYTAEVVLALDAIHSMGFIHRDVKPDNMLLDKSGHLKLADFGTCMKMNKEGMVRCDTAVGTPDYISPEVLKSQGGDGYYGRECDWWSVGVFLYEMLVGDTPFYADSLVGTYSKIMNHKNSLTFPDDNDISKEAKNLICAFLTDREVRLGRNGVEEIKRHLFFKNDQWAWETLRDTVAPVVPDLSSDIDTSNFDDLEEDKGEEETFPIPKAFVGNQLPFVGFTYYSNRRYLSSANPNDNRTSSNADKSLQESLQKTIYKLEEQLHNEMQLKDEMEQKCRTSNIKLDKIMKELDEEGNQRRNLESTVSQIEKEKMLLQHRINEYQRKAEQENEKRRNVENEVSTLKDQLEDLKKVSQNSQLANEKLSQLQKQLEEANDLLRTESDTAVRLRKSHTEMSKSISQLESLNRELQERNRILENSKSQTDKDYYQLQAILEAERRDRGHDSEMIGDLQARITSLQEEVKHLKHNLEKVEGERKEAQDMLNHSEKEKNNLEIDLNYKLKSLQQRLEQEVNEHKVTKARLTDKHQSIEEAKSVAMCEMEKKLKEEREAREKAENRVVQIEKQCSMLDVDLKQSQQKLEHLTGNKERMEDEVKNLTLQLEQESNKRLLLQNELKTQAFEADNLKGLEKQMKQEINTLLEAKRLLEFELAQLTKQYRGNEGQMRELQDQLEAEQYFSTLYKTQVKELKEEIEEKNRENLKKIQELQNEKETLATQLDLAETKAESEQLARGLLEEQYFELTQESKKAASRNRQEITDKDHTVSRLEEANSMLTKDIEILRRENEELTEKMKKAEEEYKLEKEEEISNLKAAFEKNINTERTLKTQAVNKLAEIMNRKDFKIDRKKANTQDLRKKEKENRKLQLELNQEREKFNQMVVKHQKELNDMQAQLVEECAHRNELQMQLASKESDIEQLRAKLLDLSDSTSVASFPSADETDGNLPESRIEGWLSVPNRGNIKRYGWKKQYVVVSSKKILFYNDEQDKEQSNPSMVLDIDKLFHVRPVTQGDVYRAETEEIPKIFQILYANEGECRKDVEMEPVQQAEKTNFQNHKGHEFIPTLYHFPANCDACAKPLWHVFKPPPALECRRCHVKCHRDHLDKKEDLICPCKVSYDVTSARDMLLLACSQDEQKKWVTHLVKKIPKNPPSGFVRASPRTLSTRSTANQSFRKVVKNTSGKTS

Broadly, the inhibition is the relative decrease from the control value, in per cent. A word on the ΔTm: it is the shift of the melting midpoint relative to a reference. In the case of `Clc1cc2c(NC3CCCC3)nnc(-c3ccncc3)c2cc1Cl`, the inhibition entry in assay [1], in assay [2], in [3], in assay [4], in assay [5] and in assay [6] was “inactive” in each case. Also, the inhibition entry in assay [7], in assay [8], in assay [9] and in assay [10] was “inactive” in each case. Besides, the ΔTm in assay [11] is 6.4 °C. Also, the result with U2OS [12], in the assay on U2OS [13], in the assay with HeLa, with U2OS [14] and in the assay on U2OS [15] was Active. Moreover, the inhibition result in the assay on U2OS [16] is “Active”. For the same compound, the inhibition in assay [17] was 3%; in [18], 3%; in assay [19], -1%; in assay [20], -1%; in assay [21], -2%; in assay [22] it was -4%. In addition, the values for the inhibition in assay [23], in assay [24] and in [25] were -6%, 20% and -4%, respectively.
Consider `O=C(c1nnc(NC2CCCC2)c2cc(Cl)c(Cl)cc12)N1CCC(O)CC1`, for which the outcome in the assay on U2OS [26], with MEF [27] and in the assay with MEF [28] was inactive.
